Data taken from patent US9221822B2, “Thiazolopyrimidine modulators as immunosuppressive agents” (Katholieke Universiteit Leuven, K.U.Leuven R&D, priority 2009, dated 2015).

Tested on: Human peripheral blood mononuclear cells (PBMCs) as Responder cells, RPMI 1788 Stimulator cells
Assay: Mixed Lymphocyte Reaction (MLR) test
Format: cell-based
Details: Homo sapiens, RPMI-1788, lowest concentration giving 50% inhibition of the MLR; 6 days coculture, 3H-thymidine incorporation
How it was run: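 Human PBMC responders (0.12×10^6) were cocultured 6 days with mitomycin C-treated RPMI 1788 stimulators (0.045×10^6) and compound in RPMI 1640 with 10% FCS, in triplicate. A ^3H-thymidine pulse on day 5, harvested 18 h later, measured proliferation (cpm), converted to % inhibition versus a compound-free MLR.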

Row | Compound | IC50 [µM]
1 | O=C(COc1ccc(Cl)cc1)N1CCN(c2nc(-c3ccccc3)nc3sc(-c4ccc(F)cc4)cc23)CC1 [Example 352, 2-(4-chlorophenoxy)-1-(4-(6-(4-fluorophenyl)-2-phenylthieno[2,3-d]pyrimidin-4-yl)piperazin-1-yl)ethanone] | > 10
2 | Nc1nc(N2CCN(C(=O)Nc3ccc(Cl)cc3)CC2)c2cc(-c3ccccc3)sc2n1 [Example 331, 4-(2-amino-6-phenylthieno[2,3-d]pyrimidin-4-yl)-N-(4-chlorophenyl)piperazine-1-carboxamide] | 6.7
3 | Nc1nc(N2CCN(C(=O)COc3ccc(Cl)cc3)CC2)c2nc(SCCc3ccccc3)[nH]c2n1 [Example 427, 1-(4-(2-amino-8-(phenethylthio)-9H-purin-6-yl)piperazin-1-yl)-2-(4-chlorophenoxy)ethanone] | > 10
4 | Nc1nc(N2CCN(CCOc3ccccc3)CC2)c2cc(-c3ccccc3)sc2n1 [Example 337, 4-(4-(2-phenoxyethyl)piperazin-1-yl)-6-phenylthieno[2,3-d]pyrimidin-2-amine] | 9.64
5 | Cc1cccc(NC(=O)N2CCN(c3nc(N)nc4sc(-c5cccnc5)nc34)CC2)c1 [Example 276, 4-(5-amino-2-(pyridin-3-yl)thiazolo[5,4-d]pyrimidin-7-yl)-N-m-tolylpiperazine-1-carboxamide] | 0.001
6 | Nc1nc(N2CCN(C(=O)COc3ccc(Cl)cc3)CC2)c2nc(-c3ccccn3)sc2n1 [Example 282, 1-(4-(5-amino-2-(pyridin-2-yl)thiazolo[5,4-d]pyrimidin-7-yl)piperazin-1-yl)-2-(4-chlorophenoxy)ethanone] | 0.229
7 | Nc1nc(N2CCN(C(=O)COc3ccc(Br)cc3)CC2)c2nc(CCc3ccc(F)cc3)sc2n1 [Example 52, 1-(4-(5-amino-2-(4-fluorophenethyl)thiazolo[5,4-d]pyrimidin-7-yl)piperazin-1-yl)-2-(4-bromophenoxy)ethanone] | > 10
8 | Nc1nc(N2CCN(C(=O)c3ccc(Cl)cc3)CC2)c2nc(CCc3cccs3)sc2n1 [Example 156, 5-amino-2-(2-thiophen-2-ylethyl)-7-(4-(4-chloro-benzoyl)piperazin-1-yl)thiazolo[5,4-d]pyrimidine] | > 10
9 | Cn1c(-c2ccc(F)cc2)nc2c(N3CCN(C(=O)COc4ccc(Cl)cc4)CC3)nc(N)nc21 [Example 430, 1-(4-(2-amino-8-(4-fluorophenyl)-9-methyl-9H-purin-6-yl)piperazin-1-yl)-2-(4-chlorophenoxy)ethanone] | 0.36
10 | Nc1nc(N2CCN(C(=O)c3cccc4ccccc34)CC2)c2nc(-c3ccc(F)cc3)[nH]c2n1 [Example 406, (4-(2-amino-8-(4-fluorophenyl)-9H-purin-6-yl)piperazin-1-yl)(naphthalen-1-yl)methanone] | 6.4
11 | Nc1nc(N2CCCN(C(=O)c3ccc(Cl)cc3)CC2)c2cc(-c3ccccc3)sc2n1 [Example 335, (4-(2-amino-6-phenylthieno[2,3-d]pyrimidin-4-yl)-1,4-diazepan-1-yl)(4-chlorophenyl)methanone] | > 10
12 | Nc1nc(N2CCN(C(=O)COc3ccc(Cl)cc3)CC2)c2nc(-c3ccc(Br)cc3)[nH]c2n1 [Example 391, 1-(4-(2-amino-8-(4-bromophenyl)-9H-purin-6-yl)piperazin-1-yl)-2-(4-chlorophenoxy)ethanone] | 0.26
13 | N#Cc1ccc(NC(=O)N2CCN(c3nc(N)nc4sc(-c5ccc(F)cc5)nc34)CC2)cc1 [Example 216, 4-(5-amino-2-(4-fluorophenyl)thiazolo[5,4-d]pyrimidin-7-yl)-N-(4-cyanophenyl)piperazine-1-carboxamide] | 0.019
14 | CCCCc1nc(N2CCN(C(=O)COc3ccc(Cl)cc3)CC2)c2cc(-c3ccc(F)cc3)sc2n1 [Example 313, 1-(4-(2-butyl-6-(4-fluorophenyl)thieno[2,3-d]pyrimidin-4-yl)piperazin-1-yl)-2-(4-chlorophenoxy)ethanone] | 1.33
15 | Nc1nc(N2CCCN(C(=O)COc3ccc(Cl)cc3)CC2)c2nc(-c3ccc(F)cc3)[nH]c2n1 [Example 421, 1-(4-(2-amino-8-(4-fluorophenyl)-9H-purin-6-yl)-1,4-diazepan-1-yl)-2-(4-chlorophenoxy)ethanone] | 3.71
16 | Nc1nc(N2CCN(C(=O)COc3ccc(Cl)cc3)CC2)c2nc(C(c3ccc(F)cc3)C3CCCC3)sc2n1 (centres unmarked) [Example 151, 5-amino-2-[cyclopentyl-(4-fluorophenyl)methyl]-7-(4-[2-(4-chlorophenoxy)acetyl]piperazin-1-yl)thiazolo[5,4-d]pyrimidine] | > 10
17 | Nc1nc(N2CCN(C(=O)COc3ccc(Cl)cc3)CC2)c2nc(-c3ccc(OC(F)(F)F)cc3)[nH]c2n1 [Example 395, 1-(4-(2-amino-8-(4-(trifluoromethoxy)phenyl)-9H-purin-6-yl)piperazin-1-yl)-2-(4-chlorophenoxy)ethanone] | > 10
18 | C[S+]([O-])c1nc2c(N3CCN(C(=O)COc4ccc(Cl)cc4)CC3)nc(N)nc2s1 (centres unmarked) [Example 126, 5-amino-7-[4-(4-chlorophenoxyacetyl)piperazin-1-yl]-2-methylsulfinyl-thiazolo[5,4-d]pyrimidine] | 2.65

Row | Compound | IC50 [µM]
19 | Nc1nc(N2CCN(C(=O)COc3ccc(Cl)cc3)CC2)c2nc(-c3ccccc3)sc2n1 [Example 215, 1-(4-(5-amino-2-phenylthiazolo[5,4-d]pyrimidin-7-yl)piperazin-1-yl)-2-(4-chlorophenoxy)ethanone] | 0.116
20 | Nc1nc(N2CCN(C(=O)COc3ccc(Cl)cc3)CC2)c2nc(-c3ccncc3)sc2n1 [Example 281, 1-(4-(5-amino-2-(pyridin-4-yl)thiazolo[5,4-d]pyrimidin-7-yl)piperazin-1-yl)-2-(4-chlorophenoxy)ethanone] | 0.041
21 | Nc1nc(N2CCN(c3ccc(Cl)cc3)CC2)c2nc(-c3ccc(F)cc3)[nH]c2n1 [Example 414, 6-(4-(4-chlorophenyl)piperazin-1-yl)-8-(4-fluorophenyl)-9H-purin-2-amine] | 3.87
22 | CCCCCc1nc2c(N3CCN(C(=O)COc4ccc(OC)cc4)CC3)nc(N)nc2s1 [Example 296, 1-(4-(5-amino-2-pentylthiazolo[5,4-d]pyrimidin-7-yl)piperazin-1-yl)-2-(4-methoxyphenoxy)ethanone] | 7.59
23 | Cc1ccc(CCc2nc3c(N4CCN(C(=O)COc5ccc(Br)cc5)CC4)nc(N)nc3s2)cc1 [Example 258, 1-(4-(5-amino-2-(4-methylphenethyl)thiazolo[5,4-d]pyrimidin-7-yl)piperazin-1-yl)-2-(4-bromophenoxy)ethanone] | 0.93
24 | COc1cccc(CCc2nc3c(N4CCN(C(=O)COc5ccc(Br)cc5)CC4)nc(N)nc3s2)c1 [Example 254, 1-(4-(5-amino-2-(3-methoxyphenethyl)thiazolo[5,4-d]pyrimidin-7-yl)piperazin-1-yl)-2-(4-bromophenoxy)ethanone] | 1.22
25 | Nc1nc(N2CCN(C(=O)OCc3ccccc3)CC2)c2nc(-c3ccc(F)cc3)sc2n1 [Example 40, benzyl-4-(5-amino-2-(4-fluorophenyl)thiazolo[5,4-d]pyrimidin-7-yl)piperazine-1-carboxylate] | 4.9
26 | CSc1nc2c(N3CCN(C(=O)COc4ccc(Cl)cc4)CC3)nc(N)nc2n1C [Example 428, 1-(4-(2-amino-9-methyl-8-(methylthio)-9H-purin-6-yl)piperazin-1-yl)-2-(4-chlorophenoxy)ethanone] | 0.3
27 | COc1ccc(CCc2nc3c(N4CCN(C(=O)COc5ccc(Br)cc5)CC4)nc(N)nc3s2)cc1OC [Example 256, 1-(4-(5-amino-2-(3,4-dimethoxyphenethyl)thiazolo[5,4-d]pyrimidin-7-yl)piperazin-1-yl)-2-(4-bromophenoxy)ethanone] | 0.74
28 | CC(C)(Oc1ccc(Cl)cc1)C(=O)N1CCN(c2nc(N)nc3sc(-c4ccccc4)cc23)CC1 [Example 373, 1-(4-(2-amino-6-phenylthieno[2,3-d]pyrimidin-4-yl)piperazin-1-yl)-2-(4-chlorophenoxy)-2-methylpropan-1-one] | 6.92
29 | Cc1ccc(-c2nc3c(N4CCN(C(=O)COc5ccc(Cl)cc5)CC4)nc(N)nc3[nH]2)cc1 [Example 396, 1-(4-(2-amino-8-p-tolyl-9H-purin-6-yl)piperazin-1-yl)-2-(4-chlorophenoxy)ethanone] | 0.47
30 | COc1ccc(OCC(=O)N2CCN(c3nc(N)nc4sc(-c5ccc(F)cc5)nc34)CC2)cc1 [Example 234, 1-(4-(5-amino-2-(4-fluorophenyl)thiazolo[5,4-d]pyrimidin-7-yl)piperazin-1-yl)-2-(4-methoxyphenoxy)ethanone] | 0.037
31 | CCOC(=O)c1nc(N2CCN(C(=O)COc3ccc(Cl)cc3)CC2)c2cc(-c3ccc(F)cc3)sc2n1 [Example 353, ethyl 4-(4-(2-(4-chlorophenoxy)acetyl)piperazin-1-yl)-6-(4-fluorophenyl)thieno[2,3-d]pyrimidine-2-carboxylate] | > 10
32 | Nc1nc(N2CCN(C(=O)COc3ccc(Cl)cc3)CC2)c2nc(-c3ccc(F)cc3)n(Cc3ccccc3)c2n1 [Example 431, 1-(4-(2-amino-9-benzyl-8-(4-fluorophenyl)-9H-purin-6-yl)piperazin-1-yl)-2-(4-chlorophenoxy)ethanone] | > 10
33 | CC(C)N(C(=O)N1CCN(c2nc(N)nc3sc(-c4ccc(F)cc4)cc23)CC1)C(C)C [Example 347, 4-(2-amino-6-(4-fluorophenyl)thieno[2,3-d]pyrimidin-4-yl)-N,N-diisopropylpiperazine-1-carboxamide] | 8.2
34 | Cc1cccc(OCC(=O)N2CCN(c3nc(N)nc4sc(-c5ccco5)nc34)CC2)c1 [Example 210, 1-(4-(5-amino-2-(furan-2-yl)thiazolo[5,4-d]pyrimidin-7-yl)piperazin-1-yl)-2-(m-tolyloxy)ethanone] | 0.072
35 | Nc1nc(N2CCN(C(=O)c3ccc(Cl)cc3)CC2)c2nc(CCc3ccc(F)cc3)sc2n1 [Example 135, 5-amino-2-[2-(4-fluorophenyl)ethyl]-7-[4-(4-chlorobenzoyl)piperazin-1-yl]-thiazolo[5,4-d]pyrimidine] | > 10
